From ChEMBL document CHEMBL4052807 (Bioorg Med Chem Lett, 2017)
pIC50: −log10 of the molar value. Values after ≈ are worked out from the molar mass of the structure shown.

What was measured:
[1] = target: T1, Leucine-rich repeat serine/threonine-protein kinase 2 (Homo sapiens, UniProt Q5S007); experiment: Inhibition of LRRK2 (unknown origin) by HTRF assay
[2] = Passive permeability in MDCK cells expressing human MDR1; type: ADME, cell-based, Canis lupus familiaris; details: dog, read-out: permeability
[3] = Half life in Swiss albino mouse at 1 mg/kg, iv or 10 mg/kg, po; type: ADME, organism-based; details: in vivo
[4] = Protein binding in mouse brain; type: ADME, tissue-based; details: read-out: PB (converted)
Mus musculus [5] = experiment: Dose normalized AUC in Swiss albino mouse at 1 mg/kg, iv; type: ADME, organism-based; details: in vivo
Liver = experiment: Intrinsic clearance in human liver microsomes; type: ADME, microsome
Mus musculus [6] = experiment: Volume of distribution at steady state in Swiss albino mouse at 1 mg/kg, iv or 10 mg/kg, po; type: ADME, organism-based; details: in vivo
SRSF protein kinase 3 [7] = target: T2, SRSF protein kinase 3 (Homo sapiens, UniProt Q9UPE1); experiment: Inhibition of human MSSK1 using GRSRSRSRSR as substrate at 1uM in presence of [gamma-33P]-ATP
[8] = Solubility of the compound; type: physicochemical
[9] = Volume of distribution at steady state in Swiss albino mouse at 1 mg/kg, iv or 2 mg/kg, po; type: ADME, organism-based; details: in vivo, read-out: Vdss
[10] = Ratio of drug level in Swiss albino mouse brain to blood at 1 mg/kg, iv or 2 mg/kg, po; type: ADME, organism-based
[11] = Blood clearance in Swiss albino mouse at 1 mg/kg, iv or 2 mg/kg, po; type: ADME, organism-based; details: whole blood
[12] = target: T1, Leucine-rich repeat serine/threonine-protein kinase 2; experiment: Inhibition of human LRRK2 using RLGRDKYKTLRQIRQ as substrate at 1uM in presence of [gamma-33P]-ATP
[13] = Half life in Swiss albino mouse at 1 mg/kg, iv or 2 mg/kg, po; type: ADME, organism-based; details: in vivo
[14] = Oral bioavailability in Swiss albino mouse at 2 mg/kg; type: ADME, organism-based; details: in vivo
SRSF protein kinase 3 [15] = target: T2, SRSF protein kinase 3; experiment: Inhibition of human MSSK1 GRSRSRSRSR as substrate in presence of [gamma-33P]-ATP

T1 sequence (Q5S007 whole entry): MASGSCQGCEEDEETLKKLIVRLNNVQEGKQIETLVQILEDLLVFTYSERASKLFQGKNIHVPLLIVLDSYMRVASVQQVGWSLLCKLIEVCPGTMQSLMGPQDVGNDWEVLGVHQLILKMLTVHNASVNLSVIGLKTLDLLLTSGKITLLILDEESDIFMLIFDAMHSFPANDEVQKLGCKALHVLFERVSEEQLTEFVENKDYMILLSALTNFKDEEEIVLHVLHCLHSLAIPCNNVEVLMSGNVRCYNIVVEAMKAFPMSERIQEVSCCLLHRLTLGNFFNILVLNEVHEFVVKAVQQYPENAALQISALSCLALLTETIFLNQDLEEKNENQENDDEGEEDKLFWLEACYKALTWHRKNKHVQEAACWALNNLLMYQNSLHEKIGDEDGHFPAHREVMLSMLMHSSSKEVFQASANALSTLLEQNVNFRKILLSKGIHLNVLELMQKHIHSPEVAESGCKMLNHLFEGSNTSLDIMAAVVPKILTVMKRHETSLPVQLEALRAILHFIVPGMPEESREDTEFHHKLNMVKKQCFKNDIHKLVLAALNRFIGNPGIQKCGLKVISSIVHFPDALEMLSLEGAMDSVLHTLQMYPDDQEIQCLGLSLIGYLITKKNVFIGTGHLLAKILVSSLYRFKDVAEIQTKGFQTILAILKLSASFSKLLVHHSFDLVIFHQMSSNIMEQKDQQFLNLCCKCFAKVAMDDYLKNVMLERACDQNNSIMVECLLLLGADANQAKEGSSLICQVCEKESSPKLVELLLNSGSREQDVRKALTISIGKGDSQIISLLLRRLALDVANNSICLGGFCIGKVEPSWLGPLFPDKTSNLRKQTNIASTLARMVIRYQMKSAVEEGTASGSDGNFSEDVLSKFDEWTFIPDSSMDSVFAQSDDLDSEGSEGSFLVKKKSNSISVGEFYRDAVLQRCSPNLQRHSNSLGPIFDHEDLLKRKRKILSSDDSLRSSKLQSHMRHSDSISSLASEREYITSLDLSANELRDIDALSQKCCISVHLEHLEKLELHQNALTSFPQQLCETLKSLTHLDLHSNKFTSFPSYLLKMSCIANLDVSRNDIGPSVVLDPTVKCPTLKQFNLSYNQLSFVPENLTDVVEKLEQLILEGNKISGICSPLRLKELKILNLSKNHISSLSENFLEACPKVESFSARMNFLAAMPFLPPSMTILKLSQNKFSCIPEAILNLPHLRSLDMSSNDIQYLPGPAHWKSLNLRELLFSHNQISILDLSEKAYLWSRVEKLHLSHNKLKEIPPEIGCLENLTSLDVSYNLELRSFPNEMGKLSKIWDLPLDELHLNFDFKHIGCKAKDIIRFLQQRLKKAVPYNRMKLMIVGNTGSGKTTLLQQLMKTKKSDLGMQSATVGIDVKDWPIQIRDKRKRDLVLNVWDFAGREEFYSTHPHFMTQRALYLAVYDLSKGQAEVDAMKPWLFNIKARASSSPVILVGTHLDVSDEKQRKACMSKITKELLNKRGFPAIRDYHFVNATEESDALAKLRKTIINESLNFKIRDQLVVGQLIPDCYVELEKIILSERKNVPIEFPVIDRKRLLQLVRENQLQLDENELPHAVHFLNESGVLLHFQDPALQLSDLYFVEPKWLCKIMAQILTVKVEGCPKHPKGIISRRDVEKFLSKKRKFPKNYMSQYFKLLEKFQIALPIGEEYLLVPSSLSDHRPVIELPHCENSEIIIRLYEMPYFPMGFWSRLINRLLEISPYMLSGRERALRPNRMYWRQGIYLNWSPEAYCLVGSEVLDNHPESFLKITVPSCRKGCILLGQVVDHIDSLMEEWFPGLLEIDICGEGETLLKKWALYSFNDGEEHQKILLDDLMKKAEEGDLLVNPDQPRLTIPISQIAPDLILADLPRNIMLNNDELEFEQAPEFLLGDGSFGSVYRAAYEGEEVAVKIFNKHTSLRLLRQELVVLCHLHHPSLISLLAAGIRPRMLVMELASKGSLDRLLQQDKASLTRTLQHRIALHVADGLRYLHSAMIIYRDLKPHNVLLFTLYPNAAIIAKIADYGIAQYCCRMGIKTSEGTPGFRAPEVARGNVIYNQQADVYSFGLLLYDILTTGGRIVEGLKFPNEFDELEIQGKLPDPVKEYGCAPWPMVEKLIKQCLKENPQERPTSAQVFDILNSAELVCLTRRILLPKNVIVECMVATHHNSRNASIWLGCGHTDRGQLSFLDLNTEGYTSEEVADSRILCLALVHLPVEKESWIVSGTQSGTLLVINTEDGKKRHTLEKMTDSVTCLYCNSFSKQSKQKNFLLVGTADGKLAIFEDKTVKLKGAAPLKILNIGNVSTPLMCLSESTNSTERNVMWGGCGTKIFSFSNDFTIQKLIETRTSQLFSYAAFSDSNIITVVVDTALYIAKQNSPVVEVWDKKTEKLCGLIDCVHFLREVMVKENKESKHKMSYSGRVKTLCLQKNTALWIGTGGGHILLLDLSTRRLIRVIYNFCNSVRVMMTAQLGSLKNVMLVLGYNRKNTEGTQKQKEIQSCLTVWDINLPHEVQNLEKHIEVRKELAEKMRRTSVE
T2 sequence (Q9UPE1 whole entry): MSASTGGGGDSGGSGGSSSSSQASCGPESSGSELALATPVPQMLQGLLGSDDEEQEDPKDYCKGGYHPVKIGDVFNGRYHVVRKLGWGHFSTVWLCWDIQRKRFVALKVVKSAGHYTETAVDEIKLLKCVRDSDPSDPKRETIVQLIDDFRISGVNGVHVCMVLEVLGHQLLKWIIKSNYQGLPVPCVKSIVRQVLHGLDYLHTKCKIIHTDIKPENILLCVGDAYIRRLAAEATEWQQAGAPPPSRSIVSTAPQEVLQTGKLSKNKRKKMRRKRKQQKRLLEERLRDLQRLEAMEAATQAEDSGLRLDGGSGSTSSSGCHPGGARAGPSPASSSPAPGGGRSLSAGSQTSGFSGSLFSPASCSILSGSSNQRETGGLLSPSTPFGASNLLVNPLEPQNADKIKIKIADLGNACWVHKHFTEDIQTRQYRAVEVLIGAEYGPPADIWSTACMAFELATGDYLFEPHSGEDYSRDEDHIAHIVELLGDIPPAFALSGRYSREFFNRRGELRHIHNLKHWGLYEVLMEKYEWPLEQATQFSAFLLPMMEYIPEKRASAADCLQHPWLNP

pIC50 [1] | Papp [2] [×10⁻⁶ cm/s] | fraction unbound [4] | AUC/dose (Mus musculus [5]) [ng·h/mL/mg/kg] | CLH (Liver) [mL/min/g] | solubility [8] [µM] | Vd [9] [L/kg] | half-life [13] [h] | bioavailability [14] [%] | SMILES | further results
7.80 |  |  |  |  |  |  |  |  | O=C(Nc1cccnc1)c1cc(Br)ccc1OCc1cccc(F)c1 | 
8.00 | > 10 | 0.003 | 520 | 1.2 |  |  |  |  | O=C(Nc1cccnc1)c1cc(-c2ccnc(F)c2)ccc1OCc1ccccc1 | half-life [3]: 1.1 h; Vdss (Mus musculus [6]): 2.3 L/kg
8.10 |  |  |  |  |  |  |  |  | O=C(Nc1cccnc1)c1cc(Br)ccc1OCc1ccccc1F | 
 | > 10 | 0.004 | 597 | 0.8 | 11 (≈ 4.29 µg/mL) | 2.7 | 1.2 | 91.6 | O=C(Nc1cccnc1)c1cc(C(F)(F)F)ccc1OCc1ccc(F)cc1 | inhibition (SRSF protein kinase 3 [7]): > 40%; Kp [10]: 1.3; clearance [11]: 27.7 mL/min/kg; inhibition [12]: > 40%; pIC50 (SRSF protein kinase 3 [15]): 6.80
7.90 |  |  |  | 2.8 | < 1 |  |  |  | O=C(Nc1cccnc1)c1cc(Br)ccc1OCc1ccccc1 | 
 | > 10 |  | 253 |  |  | 1.6 | 0.4 | 10 | Cn1cc(-c2ccc(OCc3ccc(F)cc3)c(C(=O)Nc3cccnc3)c2)cn1 | 
